Reference: US9802941B2, “Compounds and methods for inhibiting histone demethylases” (Gilead Sciences, Inc., priority 2014, dated 2017)
Where two headings read alike, the source gives them in different places.

How the values were obtained:
Assay type in all cases: biochemical
KDM4C (JMJD2C) = target: T1, KDM4C (JMJD2C) (Homo sapiens, UniProt Q9H3R0); experiment: Histone lysine demethylase AlphaLISA assay, KDM4C
T1 construct: KDM4C; BRIC, Denmark; 1-349; E. coli; host or cells: E. coli
T1 sequence (Q9H3R0 1-349): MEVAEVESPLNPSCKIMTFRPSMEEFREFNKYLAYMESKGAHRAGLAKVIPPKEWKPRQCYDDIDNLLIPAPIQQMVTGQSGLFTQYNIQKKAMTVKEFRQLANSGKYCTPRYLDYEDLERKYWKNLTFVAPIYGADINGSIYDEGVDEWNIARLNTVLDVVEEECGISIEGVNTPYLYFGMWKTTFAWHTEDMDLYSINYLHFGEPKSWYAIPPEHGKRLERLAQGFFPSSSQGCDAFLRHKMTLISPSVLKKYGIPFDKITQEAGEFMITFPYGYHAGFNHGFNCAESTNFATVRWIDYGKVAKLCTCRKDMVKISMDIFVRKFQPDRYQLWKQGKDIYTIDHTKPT
Outline: (§1)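 Compounds preincubated 10 min with each demethylase in Hepes buffer (pH 7.4-8.0) containing Tween-20, 0.1% BSA and 5 μM Fe(II); substrate then added, room-temperature reaction. Read-out by AlphaLISA acceptor and streptavidin donor beads after incubation in the dark.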

KDM6A (UTX) = target: T2, KDM6A (UTX) (Homo sapiens, UniProt O15550); experiment: Histone lysine demethylase AlphaLISA assay, KDM6A
T2 construct: KDM6A (UTX); BRIC; 919-1401; E. coli; host or cells: E. coli
T2 sequence (O15550 919-1401): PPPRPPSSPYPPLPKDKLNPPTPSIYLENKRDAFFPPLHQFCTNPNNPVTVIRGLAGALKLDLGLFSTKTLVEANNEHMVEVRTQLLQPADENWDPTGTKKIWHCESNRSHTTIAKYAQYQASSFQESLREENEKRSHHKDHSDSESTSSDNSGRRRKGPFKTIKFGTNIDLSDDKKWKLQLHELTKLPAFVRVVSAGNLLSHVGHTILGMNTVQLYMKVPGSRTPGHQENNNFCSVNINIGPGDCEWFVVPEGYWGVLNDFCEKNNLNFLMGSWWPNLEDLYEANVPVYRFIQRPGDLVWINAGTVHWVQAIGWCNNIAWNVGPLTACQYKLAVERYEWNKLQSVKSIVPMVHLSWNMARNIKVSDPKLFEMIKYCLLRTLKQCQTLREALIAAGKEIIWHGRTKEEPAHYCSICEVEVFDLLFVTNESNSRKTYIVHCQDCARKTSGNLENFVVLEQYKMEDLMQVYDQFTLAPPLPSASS
Method: The compounds of the application, or a pharmaceutically acceptable salt, or solvate, or prodrug thereof, are tested in an in vitro AlphaLISA assay. Enzymes are dissolved in enzyme buffer and incubated before they are added to DMSO solutions of compounds of the application, or a pharmaceutically acceptable salt, or solvate, or prodrug thereof, in enzyme buffer. The reaction mixture is then incubated for an additional period of time before substrate solution is added and then the resulting mixture again incubated. Acceptor beads and suspended Epigenetic Buffer from stock are added and the suspension is again incubated before a suspension of streptavidin donor beads in Epigenetic Buffer is added. After an additional period of incubation, the plates are read.
The ability of compounds of the application to inhibit the histone lysine demethylase activity in vitro of different enzymes was determined.
The reaction mixture was incubated for another 10 minutes before 5 μL of substrate solution was added and the resulting mixture was then incubated at room temperature. […] After incubation at room temperature in the dark, the plates were read.
Enzyme Buffer: 50 mM Hepes (pH 7.4-8.0), 0.003-0.01% Tween-20, 0.1% BSA; 5 μM (NH4)2Fe(SO4)2.

PHF8 (KDM7) = target: T3, PHF8 (KDM7) (Homo sapiens, UniProt Q9UPP1); experiment: Histone lysine demethylase AlphaLISA assay, PHF8
T3 construct: KDM7 (PHF8); BRIC; 1-1322; Bac
T3 sequence (Q9UPP1 37-440 limits assumed): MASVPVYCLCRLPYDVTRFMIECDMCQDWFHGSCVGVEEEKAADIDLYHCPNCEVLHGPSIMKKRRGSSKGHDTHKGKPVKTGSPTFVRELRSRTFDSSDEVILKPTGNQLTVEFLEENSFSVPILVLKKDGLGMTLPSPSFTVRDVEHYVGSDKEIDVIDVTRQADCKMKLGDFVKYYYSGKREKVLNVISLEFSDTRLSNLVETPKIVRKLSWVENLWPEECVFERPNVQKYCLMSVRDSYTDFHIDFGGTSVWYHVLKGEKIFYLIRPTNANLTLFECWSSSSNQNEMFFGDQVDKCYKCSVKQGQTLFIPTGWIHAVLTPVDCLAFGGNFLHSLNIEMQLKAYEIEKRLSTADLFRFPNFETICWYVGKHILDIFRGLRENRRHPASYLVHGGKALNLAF
Outline: as §1

KDM2B (FBXL10) = target: T4, KDM2B (FBXL10) (Homo sapiens, UniProt Q8NHM5); experiment: Histone lysine demethylase AlphaLISA assay, KDM2B
T4 construct: KDM2B; BPS,; 1-650; Bac; purchased BPS Bioscience, US; host or cells: baculovirus system
T4 sequence (Q8NHM5 1-650): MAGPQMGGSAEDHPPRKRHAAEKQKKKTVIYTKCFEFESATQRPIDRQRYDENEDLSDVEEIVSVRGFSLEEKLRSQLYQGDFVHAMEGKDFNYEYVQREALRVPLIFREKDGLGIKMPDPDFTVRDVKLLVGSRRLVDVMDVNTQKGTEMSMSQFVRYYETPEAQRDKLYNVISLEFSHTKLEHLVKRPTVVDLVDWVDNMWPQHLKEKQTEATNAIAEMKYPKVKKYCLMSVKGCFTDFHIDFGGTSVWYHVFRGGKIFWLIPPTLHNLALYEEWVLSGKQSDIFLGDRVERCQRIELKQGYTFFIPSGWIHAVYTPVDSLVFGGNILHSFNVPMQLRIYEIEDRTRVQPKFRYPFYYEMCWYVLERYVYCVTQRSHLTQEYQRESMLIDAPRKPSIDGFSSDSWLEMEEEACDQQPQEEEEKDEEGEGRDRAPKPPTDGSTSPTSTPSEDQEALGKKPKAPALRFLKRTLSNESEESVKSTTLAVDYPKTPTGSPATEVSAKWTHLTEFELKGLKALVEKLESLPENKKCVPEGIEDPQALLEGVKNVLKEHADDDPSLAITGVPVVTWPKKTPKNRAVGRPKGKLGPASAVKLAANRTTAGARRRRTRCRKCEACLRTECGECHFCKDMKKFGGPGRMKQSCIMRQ
Outline: as §1

KDM5B (PLU-1) = target: T5, KDM5B (PLU-1) (Homo sapiens, UniProt Q9UGL1); experiment: Histone lysine demethylase AlphaLISA assay, KDM5B
T5 construct: BRIC; 1-809; E. coli; host or cells: E. coli
T5 sequence (Q9UGL1 1-809): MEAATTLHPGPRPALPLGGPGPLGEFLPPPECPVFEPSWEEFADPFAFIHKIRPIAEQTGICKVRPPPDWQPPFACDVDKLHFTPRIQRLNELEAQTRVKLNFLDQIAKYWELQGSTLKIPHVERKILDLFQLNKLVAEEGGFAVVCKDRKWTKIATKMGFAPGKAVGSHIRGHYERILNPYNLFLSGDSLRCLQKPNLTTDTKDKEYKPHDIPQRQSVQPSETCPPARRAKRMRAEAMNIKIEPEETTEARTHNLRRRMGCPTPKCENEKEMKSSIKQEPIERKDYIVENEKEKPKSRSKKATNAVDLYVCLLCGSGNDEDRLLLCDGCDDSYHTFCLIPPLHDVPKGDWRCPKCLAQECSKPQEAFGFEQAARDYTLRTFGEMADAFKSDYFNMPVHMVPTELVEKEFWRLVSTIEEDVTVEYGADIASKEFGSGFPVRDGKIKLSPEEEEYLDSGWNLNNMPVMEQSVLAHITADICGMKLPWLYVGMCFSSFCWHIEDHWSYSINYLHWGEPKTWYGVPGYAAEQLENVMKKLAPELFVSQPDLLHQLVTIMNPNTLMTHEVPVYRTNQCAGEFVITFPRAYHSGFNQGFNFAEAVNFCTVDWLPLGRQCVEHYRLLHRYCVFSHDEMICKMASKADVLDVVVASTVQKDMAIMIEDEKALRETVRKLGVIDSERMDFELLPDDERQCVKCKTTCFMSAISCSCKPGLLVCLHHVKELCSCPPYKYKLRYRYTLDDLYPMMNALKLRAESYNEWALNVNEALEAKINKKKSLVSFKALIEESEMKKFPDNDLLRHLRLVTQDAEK
Outline: as §1

[1] = AlphaLISA assay, read-out: HDME Inhibition KDM4C (IC50)
[2] = AlphaLISA, in vitro, read-out: HDME Inhibition KDM4C
[3] = AlphaLISA assay, read-out: HDME Inhibition KDM6A (IC50)
[4] = AlphaLISA, in vitro, read-out: HDME Inhibition KDM6A
[5] = AlphaLISA assay, read-out: HDME Inhibition PHF8 (IC50)
[6] = AlphaLISA, in vitro, read-out: HDME Inhibition PHF8
[7] = AlphaLISA, in vitro, read-out: HDME Inhibition KDM2B
[8] = AlphaLISA assay, read-out: HDME Inhibition KDM5B (IC50)
[9] = AlphaLISA, in vitro, read-out: HDME Inhibition KDM5B

Row | SMILES | IC50 (KDM4C (JMJD2C); [1]) [µM] | IC50 (KDM4C (JMJD2C); [2]) [µM] | IC50 (KDM6A (UTX); [3]) [µM] | IC50 (KDM6A (UTX); [4]) [µM] | IC50 (PHF8 (KDM7); [5]) [µM] | IC50 (PHF8 (KDM7); [6]) [µM] | IC50 (KDM2B (FBXL10); [7]) [µM] | IC50 (KDM5B (PLU-1); [8]) [µM] | IC50 (KDM5B (PLU-1); [9]) [µM] | IC50 (KDM2B (FBXL10); AlphaLISA assay, read-out: HDME Inhibition KDM2B (IC50)) [µM] | IC50 (KDM5B (PLU-1)) [µM]
1 | Cc1cc(C(=O)O)cc(CNCCc2ccccn2)n1 [Compound 3, 2-methyl-6-({[2-(pyridin-2-yl)ethyl]amino}methyl)pyridine-4-carboxylic acid] | > 10 | > 10 | > 10 | > 10 | > 10 | > 10 | 4.65 | > 10 | > 10 | – | –
2 | CCc1cnc(CNCc2cc(C(=O)O)cc(C)n2)n1Cc1ccc(F)cc1 [Compound 4, 2-{[({5-ethyl-1-[(4-fluorophenyl)methyl]-1H-imidazol-2-yl}methyl)amino]methyl}-6-methylpyridine-4-carboxylic acid] | > 10 | > 10 | > 10 | > 10 | – | 0.234 | 0.03 | > 10 | > 10 | – | –
3 | CCC(C)Cc1cnc(CNCc2cc(C(=O)O)cc(C)n2)n1Cc1ccc(F)cc1 (stereo not shown) [Compound 30, 2-{[({1-[(4-fluorophenyl)methyl]-5-(2-methylbutyl)-1H-imidazol-2-yl}methyl)amino]methyl}-6-methylpyridine-4-carboxylic acid] | > 10 | > 10 | > 10 | > 10 | – | 2.22 | 0.703 | > 10 | > 10 | – | –
4 | CCCCc1cccnc1CCNCc1cc(C(=O)O)cc(C)n1 [Compound 15, 2-({[2-(3-butylpyridin-2-yl)ethyl]amino}methyl)-6-methylpyridine-4-carboxylic acid] | > 10 | > 10 | > 10 | > 10 | > 6 | > 6 | 5.68 | > 10 | > 10 | – | –
5 | C=Cc1cc(C(=O)O)cc(CNCc2nccn2Cc2ccc(F)cc2)n1 [Compound 12, 2-ethenyl-6-{[({1-[(4-fluorophenyl)methyl]-1H-imidazol-2-yl}methyl)amino]methyl}pyridine-4-carboxylic acid] | > 10 | > 10 | > 10 | > 10 | > 10 | > 10 | 1.6 | – | – | – | 3.76
6 | CCc1nnc(CNCc2cc(C(=O)O)cc(C)n2)n1Cc1ccc(F)cc1 [Compound 27, 2-{[({5-Ethyl-4-[(4-fluorophenyl)methyl]-4H-1,2,4-triazol-3-yl}methyl)amino]methyl}-6-methylpyridine-4-carboxylic acid] | > 10 | > 10 | > 10 | > 10 | – | 0.537 | 0.158 | > 10 | > 10 | – | –
7 | Cc1cc(C(=O)O)cc(CNCc2nccn2CCc2cncnc2)n1 [Compound 26, 2-methyl-6-{[({1-[2-(pyrimidin-5-yl)ethyl]-1H-imidazol-2-yl}methyl)amino]methyl}pyridine-4-carboxylic acid] | > 10 | > 10 | > 10 | > 10 | – | 1.03 | 0.565 | – | – | – | 3.02
8 | CCCCCCCc1cccnc1CCNCc1cc(C(=O)O)cc(C)n1 [Compound 21, 2-({[2-(3-heptylpyridin-2-yl)ethyl]amino}methyl)-6-methylpyridine-4-carboxylic acid] | > 10 | > 10 | > 10 | > 10 | > 10 | > 10 | 5.35 | > 10 | > 10 | – | –

Other lines, results leading:

Row | IC50 (KDM4C (JMJD2C); [1]) [µM] | IC50 (KDM4C (JMJD2C); [2]) [µM] | IC50 (KDM6A (UTX); [3]) [µM] | IC50 (KDM6A (UTX); [4]) [µM] | IC50 (PHF8 (KDM7); [5]) [µM] | IC50 (PHF8 (KDM7); [6]) [µM] | IC50 (KDM2B (FBXL10); [7]) [µM] | IC50 (KDM5B (PLU-1); [8]) [µM] | IC50 (KDM5B (PLU-1); [9]) [µM] | IC50 (KDM2B (FBXL10); AlphaLISA assay, read-out: HDME Inhibition KDM2B (IC50)) [µM] | IC50 (KDM5B (PLU-1)) [µM] | SMILES
9 | > 10 | > 10 | > 10 | > 10 | > 10 | > 10 | 3.97 | > 10 | > 10 | – | – | Cc1cc(C(=O)O)cc(CNCc2ncc(CCCc3ccccc3)n2Cc2ccc(F)cc2)n1 [Compound 31, 2-{[({1-[(4-fluorophenyl)methyl]-5-(3-phenylpropyl)-1H-imidazol-2-yl}methyl)amino]methyl}-6-methylpyridine-4-carboxylic acid]
10 | – | 0.299 | > 10 | > 10 | > 10 | > 10 | > 10 | – | – | > 10 | 0.714 | CCC(C)c1cnc(CNCc2cc(C(=O)O)cc(C)n2)n1Cc1ccc(F)cc1 (stereo not shown) [Compound 9, 2-[({[5-(butan-2-yl)-1-[(4-fluorophenyl)methyl]-1H-imidazole-2-yl]methyl}amino)methyl]-6-methyl-pyridine-4-carboxylic acid]
11 | > 10 | > 10 | > 10 | > 10 | – | 3.76 | 1.6 | > 10 | > 10 | – | – | C/C=C/c1cc(C(=O)O)cc(CNCc2nccn2Cc2ccc(F)cc2)n1 [Compound 5, 2-{[({1-[(4-fluorophenyl)methyl]-1H-imidazol-2-yl}methyl)amino]methyl}-6-[(1E)-prop-1-en-1-yl]pyridine-4-carboxylic acid]
